Measurements as given in ChEMBL document CHEMBL1201862, “PubChem BioAssay data set” (2004).
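48-hour exposure; five concentrations; linearly interpolated endpoints. GI50 = concentration required for 50% inhibition of growth.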 The source made the active and inactive calls. No stated cut-off is given here; in the data, active = GI50 up to about 1.1 µM and inactive = higher.

What was measured:
Assay in all cases: growth of human tumour cells (NCI), 48 h
SK-OV-3 = tested on: SK-OV-3
SF-268 = tested on: SF-268
PC-3 = tested on: PC-3
CAKI-1 = tested on: CAKI-1
ACHN = tested on: ACHN
HOP-62 = tested on: HOP-62
OVCAR-4 = tested on: OVCAR-4
MOLT-4 = tested on: MOLT-4
HOP-92 = tested on: HOP-92
HL-60 = tested on: HL-60
SN12C = tested on: SN12C
OVCAR-3 = tested on: OVCAR-3
HCC 2998 = tested on: HCC 2998
SR = tested on: SR
SF-295 = tested on: SF-295
TK-10 = tested on: TK-10
SW-620 = tested on: SW-620
SNB-75 = tested on: SNB-75
RXF 393 = tested on: RXF 393
NCI-H226 = tested on: NCI-H226

Compound | GI50 (SK-OV-3) | GI50 (SF-268) | GI50 (PC-3) | GI50 (CAKI-1) | GI50 (ACHN) | GI50 (HOP-62) | GI50 (OVCAR-4) | GI50 (MOLT-4) | GI50 (HOP-92) | GI50 (HL-60) | GI50 (SN12C) | GI50 (OVCAR-3) | GI50 (HCC 2998) | GI50 (SR) | GI50 (SF-295) | GI50 (TK-10) | GI50 (SW-620) | GI50 (SNB-75) | GI50 (RXF 393) | GI50 (NCI-H226)
O=C(c1ccccc1)c1ccc(N2C(=O)/C(=C/c3cccc([N+](=O)[O-])c3)N=C2c2ccccc2)c(N2C(=O)/C(=C/c3cccc([N+](=O)[O-])c3)N=C2c2ccccc2)c1 | > 100 µM (inactive) | 62.5 µM (inactive) | 27.3 µM (inactive) | 49.8 µM (inactive) | 53.2 µM (inactive) | 75.3 µM (inactive) | 34.6 µM (inactive) | 20.5 µM (inactive) | 82.2 µM (inactive) | 0.759 µM (active) | 98.4 µM (inactive) | 30 µM (inactive) | 15 µM (inactive) | 23.4 µM (inactive) | 16.2 µM (inactive) | 42.5 µM (inactive) | 32.9 µM (inactive) | 15.1 µM (inactive) | – | –
COc1cccc(/N=N/C(=N/NC(=O)c2cc(Cl)ccc2O)c2ccc(N(CCC#N)CCC#N)cc2C)c1 | 52 µM (inactive) | 47.1 µM (inactive) | 23.2 µM (inactive) | 48.3 µM (inactive) | 46.3 µM (inactive) | 66.5 µM (inactive) | 19.8 µM (inactive) | 19.1 µM (inactive) | – | – | 27.5 µM (inactive) | 2.06 µM (inactive) | 23.6 µM (inactive) | 21.2 µM (inactive) | 37.3 µM (inactive) | 48.8 µM (inactive) | – | 21.4 µM (inactive) | 38.1 µM (inactive) | 26.2 µM (inactive)
Cn1c(=O)c2nc(CCCc3ccc([N+](=O)[O-])cc3)[nH]c2n(C)c1=O | > 100 µM (inactive) | > 100 µM (inactive) | > 100 µM (inactive) | > 100 µM (inactive) | > 100 µM (inactive) | > 100 µM (inactive) | > 100 µM (inactive) | 56.6 µM (inactive) | > 100 µM (inactive) | – | > 100 µM (inactive) | > 100 µM (inactive) | – | > 100 µM (inactive) | > 100 µM (inactive) | > 100 µM (inactive) | – | > 100 µM (inactive) | > 100 µM (inactive) | > 100 µM (inactive)
COc1cc(NS(C)(=O)=O)ccc1Nc1cc(C)nc2ccc3[nH]ccc3c12 | – | > 100 µM (inactive) | > 100 µM (inactive) | > 100 µM (inactive) | > 100 µM (inactive) | > 100 µM (inactive) | > 100 µM (inactive) | – | > 100 µM (inactive) | > 100 µM (inactive) | > 100 µM (inactive) | > 100 µM (inactive) | – | – | > 100 µM (inactive) | > 100 µM (inactive) | > 100 µM (inactive) | – | – | > 100 µM (inactive)
COc1ccc(P2(=S)Oc3ccc(C(c4ccccc4)(c4ccccc4)c4ccccc4)cc3O2)cc1 (stereo not drawn) | 23 µM (inactive) | 17.2 µM (inactive) | 13.9 µM (inactive) | 19.1 µM (inactive) | 16.7 µM (inactive) | 24.6 µM (inactive) | 13.2 µM (inactive) | 19.6 µM (inactive) | 18.1 µM (inactive) | 15.5 µM (inactive) | 17.9 µM (inactive) | 16.9 µM (inactive) | 16.3 µM (inactive) | 22.3 µM (inactive) | 18.1 µM (inactive) | 19.1 µM (inactive) | 19.6 µM (inactive) | 13.7 µM (inactive) | – | 16.6 µM (inactive)
CCC(C)(C)c1ccc(Oc2cccc(C(=O)O)c2)cc1 | 72.1 µM (inactive) | 46.8 µM (inactive) | 55 µM (inactive) | 65.6 µM (inactive) | 58.9 µM (inactive) | 64.7 µM (inactive) | 44.3 µM (inactive) | 29.9 µM (inactive) | – | 40.1 µM (inactive) | 56.4 µM (inactive) | 26.7 µM (inactive) | 93.3 µM (inactive) | – | 38.3 µM (inactive) | > 100 µM (inactive) | 53 µM (inactive) | 37.9 µM (inactive) | 98.6 µM (inactive) | 39.9 µM (inactive)
O=[N+]([O-])c1cc2ccc1OCc1cccc(n1)COc1ccc(cc1[N+](=O)[O-])/C=N\CCCCCCCC/N=C\2 | – | > 100 µM (inactive) | > 100 µM (inactive) | > 100 µM (inactive) | > 100 µM (inactive) | > 100 µM (inactive) | > 100 µM (inactive) | > 100 µM (inactive) | > 100 µM (inactive) | – | > 100 µM (inactive) | > 100 µM (inactive) | > 100 µM (inactive) | > 100 µM (inactive) | > 100 µM (inactive) | > 100 µM (inactive) | > 100 µM (inactive) | > 100 µM (inactive) | – | > 100 µM (inactive)
O=C(c1ccccc1)C1N=NCC1c1ccc([N+](=O)[O-])cc1 (stereo not drawn) | > 100 µM (inactive) | 40.5 µM (inactive) | 54.8 µM (inactive) | 15 µM (inactive) | 47.1 µM (inactive) | > 100 µM (inactive) | 49.2 µM (inactive) | 22.4 µM (inactive) | 23.1 µM (inactive) | 23.1 µM (inactive) | > 100 µM (inactive) | 17.1 µM (inactive) | > 100 µM (inactive) | 27.9 µM (inactive) | > 100 µM (inactive) | 34 µM (inactive) | > 100 µM (inactive) | 16.7 µM (inactive) | – | 50.4 µM (inactive)
COc1cc(-c2nc(N)c(C#N)c3c2CCS(=O)(=O)c2ccc(C)cc2-3)cc(OC)c1OC | – | > 100 µM (inactive) | > 100 µM (inactive) | > 100 µM (inactive) | 28.6 µM (inactive) | 22.9 µM (inactive) | > 100 µM (inactive) | – | 9.16 µM (inactive) | > 100 µM (inactive) | 39.6 µM (inactive) | > 100 µM (inactive) | > 100 µM (inactive) | > 100 µM (inactive) | – | 9.98 µM (inactive) | > 100 µM (inactive) | 16.7 µM (inactive) | – | 9.46 µM (inactive)
Cc1ccc(C(=O)N/N=C(\N=N\c2ccccc2[N+](=O)[O-])c2ccc(N(C)C)cc2)cc1 | > 100 µM (inactive) | > 100 µM (inactive) | > 100 µM (inactive) | > 100 µM (inactive) | > 100 µM (inactive) | – | > 100 µM (inactive) | > 100 µM (inactive) | > 100 µM (inactive) | 84.9 µM (inactive) | > 100 µM (inactive) | 92 µM (inactive) | 60.5 µM (inactive) | 33.7 µM (inactive) | > 100 µM (inactive) | > 100 µM (inactive) | > 100 µM (inactive) | – | – | > 100 µM (inactive)
CCOP(=O)(/C=C/n1cc(C)c(=O)[nH]c1=O)OCC | > 100 µM (inactive) | > 100 µM (inactive) | > 100 µM (inactive) | > 100 µM (inactive) | > 100 µM (inactive) | > 100 µM (inactive) | > 100 µM (inactive) | > 100 µM (inactive) | – | > 100 µM (inactive) | > 100 µM (inactive) | > 100 µM (inactive) | – | – | > 100 µM (inactive) | > 100 µM (inactive) | > 100 µM (inactive) | > 100 µM (inactive) | > 100 µM (inactive) | > 100 µM (inactive)
O=C1c2cc(Cl)ccc2N=C(NC2CCCC2)C2CSCN12 (stereo not drawn) | > 100 µM (inactive) | 66.5 µM (inactive) | 55.8 µM (inactive) | > 100 µM (inactive) | > 100 µM (inactive) | > 100 µM (inactive) | > 100 µM (inactive) | 33.5 µM (inactive) | – | – | > 100 µM (inactive) | 60 µM (inactive) | > 100 µM (inactive) | 41.5 µM (inactive) | > 100 µM (inactive) | > 100 µM (inactive) | > 100 µM (inactive) | 52.7 µM (inactive) | 92.9 µM (inactive) | 60 µM (inactive)
C=C1C(=O)[C@@]23CC[C@@H]4[C@@]5(C)CCC[C@@]4(OC5=O)C2(C)CC[C@]1(OC)C3 (stereo partly drawn) | – | 2.14 µM (inactive) | 1.05 µM (active) | 1.75 µM (inactive) | 1.77 µM (inactive) | 1.17 µM (inactive) | – | 0.238 µM (active) | – | – | 1.73 µM (inactive) | 1.01 µM (active) | 0.351 µM (active) | 0.23 µM (active) | 3.4 µM (inactive) | 1.38 µM (inactive) | 0.718 µM (active) | 1.24 µM (inactive) | – | –
CC1(C)[C@H]2Cc3cc4nc5ccccn5c4cc3[C@@H]1C2 | 17.3 µM (inactive) | 17.6 µM (inactive) | 17.9 µM (inactive) | 14.1 µM (inactive) | 18.7 µM (inactive) | 18.7 µM (inactive) | 12 µM (inactive) | 27.1 µM (inactive) | 14.5 µM (inactive) | 22.4 µM (inactive) | 19.2 µM (inactive) | 17.5 µM (inactive) | 18.3 µM (inactive) | – | 15.2 µM (inactive) | 16.3 µM (inactive) | 20.8 µM (inactive) | 13.6 µM (inactive) | – | 16.2 µM (inactive)
CC(C)C(NC(=O)Oc1ccccc1)C(=O)NC1c2c(Br)sc(Br)c2C(=O)C1O (stereo not drawn) | > 25 µM (inactive) | 6.24 µM (inactive) | 8.53 µM (inactive) | 6.81 µM (inactive) | 5.56 µM (inactive) | – | 2.94 µM (inactive) | 11.9 µM (inactive) | – | 9.12 µM (inactive) | 5.62 µM (inactive) | 4.14 µM (inactive) | 4.2 µM (inactive) | – | > 25 µM (inactive) | 8.49 µM (inactive) | 6.1 µM (inactive) | > 25 µM (inactive) | 3.75 µM (inactive) | > 25 µM (inactive)
CCN(CCO)CC1CCCC2CCCCC21 (stereo not drawn) | > 100 µM (inactive) | > 100 µM (inactive) | > 100 µM (inactive) | > 100 µM (inactive) | > 100 µM (inactive) | > 100 µM (inactive) | > 100 µM (inactive) | – | > 100 µM (inactive) | – | > 100 µM (inactive) | > 100 µM (inactive) | > 100 µM (inactive) | – | > 100 µM (inactive) | > 100 µM (inactive) | > 100 µM (inactive) | > 100 µM (inactive) | > 100 µM (inactive) | > 100 µM (inactive)
